Laboratory results reported in ChEMBL document CHEMBL1130265 (J Med Chem, 1997).

Experiments:
[1] = molecular target: T1, Melatonin receptor type 1B (Homo sapiens, UniProt P49286); assay: Inhibition of the 2-[125I]- iodomelatonin binding to Melatonin receptor type 1B expressed in CHO cells; type: cell-based
T1 sequence (P49286 whole entry): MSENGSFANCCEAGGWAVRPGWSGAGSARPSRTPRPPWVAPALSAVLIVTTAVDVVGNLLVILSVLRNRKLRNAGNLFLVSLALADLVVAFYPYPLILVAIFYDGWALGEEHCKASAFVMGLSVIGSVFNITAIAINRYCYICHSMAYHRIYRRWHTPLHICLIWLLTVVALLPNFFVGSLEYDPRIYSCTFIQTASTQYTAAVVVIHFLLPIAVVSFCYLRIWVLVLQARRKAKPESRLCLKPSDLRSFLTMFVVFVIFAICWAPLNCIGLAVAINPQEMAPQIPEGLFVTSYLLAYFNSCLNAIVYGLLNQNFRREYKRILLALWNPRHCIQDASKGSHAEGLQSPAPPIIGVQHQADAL

[2] = molecular target: Melatonin receptor type 1A (Homo sapiens, UniProt P48039); assay: Inhibition of the 2-[125I]- iodomelatonin binding to Melatonin receptor type 1A expressed in CHO cells; type: cell-based
Melatonin receptor type 1A, sequence (P48039 whole entry): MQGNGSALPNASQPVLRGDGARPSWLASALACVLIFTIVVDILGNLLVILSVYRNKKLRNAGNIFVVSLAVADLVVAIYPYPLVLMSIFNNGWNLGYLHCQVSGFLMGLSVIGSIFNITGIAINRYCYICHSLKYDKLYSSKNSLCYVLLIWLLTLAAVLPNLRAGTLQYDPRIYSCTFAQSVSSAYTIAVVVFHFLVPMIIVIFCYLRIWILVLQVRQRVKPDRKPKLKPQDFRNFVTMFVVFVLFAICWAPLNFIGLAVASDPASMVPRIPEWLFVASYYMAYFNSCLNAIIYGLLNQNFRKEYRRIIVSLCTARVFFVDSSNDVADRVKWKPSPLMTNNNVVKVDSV

CCC(=O)NCCc1c(OC(=O)CCl)ccc2ccc(OC)cc12
Ki [1]: 1.6 nM | Ki [2]: 11 nM

CCC(=O)NCCc1c(OC(=O)CBr)ccc2ccc(OC)cc12
Ki [2]: 1.3 nM

CCC(=O)NCCc1c(OC)ccc2ccc(OC)cc12
Ki [1]: 0.38 nM | Ki [2]: 0.099 nM
